US8158389B2, “Products and methods for in vivo secretion of monatin” (priority 2005, dated 2012)

Columns and labels:
[1] = system: E. coli MG1655 ΔAcrAB 6-16::aspCproAproNde; assay: AcrAB k.o. validation: growth (OD 600 nm) with novobiocin / sodium decanoate, knockout strain; assay type: cell-based, Escherichia coli; details: sodium decanoate 2.5 mM; novobiocin 0 ppm
Experimental: Single chloramphenicol-resistant colonies were purified by restreaking on appropriate selective media and single colonies were tested by PCR as previously described for the BW25113 knockout strains, to verify the presence of the emrB and acrAB knockouts. The effects of the emrB and acrAB knockouts on the EmrAB and AcrAB transporter systems respectively were determined by assessing the phenotype of the transport mutants using appropriate antibiotics and comparison to wild type control microorganisms as shown in Table 3.1 and Table 3.2 below.

E. coli MG1655 = assay: Monatin excretion with 2.5 mM sodium decanoate, E. coli MG1655 strains with pUC19, robA or ramA (30, 48 h); assay type: cell-based, Escherichia coli
Description: The strains used for the experiment included E. coli MG1655 : : aspC/proA/pProNdeDel together with the robA gene from E. coli cloned into the pUC19 vector. The control strain was E. coli MG1655 : : aspC/proA/pProNde along with the pUC19 vector. The robA gene was amplified from E. coli W3110 using primers 5′[…]3′ (SEQ ID NO. 20) and 5′[…]3′ (SEQ ID NO. 21), which introduced SalI and BamHI sites at the end of the amplified fragment. The PCR fragment was cloned between the SalI and BamHI sites of the vector pUC19 (GenBank/EMBL accession number L09137). For inoculum, the E. coli strains were grown overnight at 37° C. and 250 rpm in Luria-Bertani (“LB”) medium with 100 μg/mL ampicillin and 50 μg/mL kanamycin.
For the experimental treatments, Trp-1+glucose medium, a minimal medium that has been used for increased production of tryptophan in E. coli cells (Zeman et al. Folia Microbiol. 35:200-204, (1990)), was prepared as follows. To 800 mL nanopure water the following reagents were added: 2 g (NH4)2SO4 and 13.6 g KH2PO4. The pH was adjusted to 7.0, the volume was increased to 948 mL, and the medium was autoclaved. Following sterilization, 0.2 g MgSO4.7H2O, 0.01 g CaCl2.2H2O, and 0.5 mg FeSO4.7H2O were ad to the medium in a 1.8 mL volume followed by addition of 0.2 mL of Neidhardt's micronutrient solution. Neidhardt F. C., et al., “Culture medium for Enterobacteria,” J. Bacteriol. 119:736-746, (1974). Neidhardt's medium includes (per liter): 0.18 g (NH4)6(MO7)24-4H2O, 1.24 g H3BO3, 0.36 g CoCl2.6H2O, 0.12 g CuSO4 (anhydrous), 0.8 g MnCl2.4H2O, and 0.14 g ZnSO4.7H2O. A 50% glucose solution was prepared separately and sterile-filtered. Forty mL of glucose solution and 10 mL of 1 M 3-Morpholinopropanesulfonic acid (“MOPS”) buffer were added to the base medium (950 mL) for a 1 L final volume.
Conditions for the treatments included 250 rpm agitation throughout and 37° C. up to induction, then, 30° C. following induction. At 0.30-0.50 OD600 nm, induction of the plasmid genes was initiated. At induction, 1.0 mM IPTG, 0.5% L-arabinose, 0.5 mM pyridoxine hydrochloride, and 0.2 mLs of Balch's vitamins were added. Additions of 10 g/L L-tryptophan, 10 g/L sodium pyruvate, 0.04 mM pyridoxal-5′-phosphate (“PLP”) and 0.2% Tween® 20 (polyoxyethylene 20-sorbitan monolaurate) were made 3 hours following induction. Some treatments included 2.5 mM sodium decanoate addition at 3 hours following induction.
The strains used for the experiment included E. coli MG1655 : : aspC/proA/pProNdeDel together with the ramA gene from Enterobacter aerogenes cloned into the pUC19 vector (GenBank/EMBL accession number L09137). The control strain was E. coli MG1655 : : aspC/proA/pProNde along with the pUC19 vector. The ramA gene was amplified from E. aerogenes ATCC 13048 by using primers, 5′[…]3′ (SEQ ID NO. 22) and 5′[…]3′ (SEQ ID NO. 23), which introduced Sal I and BamH I sites at the end of the amplified fragment. The PCR fragment was cloned between the Sal I and BamH I sites of the vector pUC19 (GenBank/EMBL accession number L09137). For inoculum, the E. coli strains were grown overnight at 37° C. and 250 rpm in Luria-Bertani (“LB”) medium with 100 μg/mL ampicillin and 50 μg/mL kanamycin.
For the experimental treatments, Trp-1+glucose medium, a minimal medium that has been used for increased production of tryptophan in E. coli cells (Zeman et al. Folia Microbiol. 35:200-204, (1990)), was prepared as follows. To 800 mL nanopure water the following reagents were added: 2 g (NH4)2SO4 and 13.6 g KU2PO4. The pH was adjusted to 7.0, the volume was increased to 948 mL, and the medium was autoclaved. Following sterilization, 0.2 g MgSO4.7H2O, 0.01 g CaCl2.2H2O, and 0.5 mg FeSO4.7H2O were to the medium in a 1.8 mL volume followed by addition of 0.2 mL of Neidhardt's micronutrient solution. Neidhardt F. C., et al., “Culture medium for Enterobacteria,” J. Bacteriol. 119:736-746, (1974). […]

[2] = E. coli MG1655::aspC proA pProNdedel pUC19 (control), n = 2
[3] = E. coli MG1655::aspC proA pProNdedel, ramA pUC19, n = 2
[4] = E. coli MG1655::aspC proA pProNdedel, robA pUC19, n = 2

Compound: CCCCCCCCCC(=O)[O-].[Na+] [sodium decanoate]
- OD 600 nm at 19 hours [1]: 0.885
- Monatin/dcw, 30 hours (E. coli MG1655; [2]): 4.66 mg/g
- Monatin/dcw, 48 hours (E. coli MG1655; [2]): 4.31 mg/g
- Monatin/dcw, 30 hours (E. coli MG1655; [3]): 3.69 mg/g
- Monatin/dcw, 48 hours (E. coli MG1655; [3]): 13.90 mg/g
- Monatin/dcw, 30 hours (E. coli MG1655; [4]): 6.91 mg/g
- Monatin/dcw, 48 hours (E. coli MG1655; [4]): 25.62 mg/g
